Measured values published in patent US11040968B2, “Pyridine derivative as ASK1 inhibitor and preparation method and use thereof” (FUJIAN COSUNTER PHARMACEUTICAL CO., LTD., priority 2017, dated 2021).

System: not listed separately
Assay: Pharmacokinetic characteristics study in mice (plasma, LC-MS/MS)
Assay type: in vivo
Conditions: C57BL/6 male mice, intravenous or oral (intragastric) administration
Description: Experimental Example 2: Pharmacokinetic Characteristics Study
C57BL/6 male mice were used in this study. The drug concentration in the plasma of mice subjected to intravenous or oral administration of the test compound at different time points were quantitatively determine by LC/MS/MS method, respectively, in order to evaluate the pharmacokinetic characteristics of the tested drugs in mice.
A clear solution of the test compound was injected into C57BL/6 mice via the tail vein (overnight fasting, 7-10 weeks old), and the test compound was intragastrically administered to C57BL/6 mice (overnight fasting, 7-10 weeks old). 30 μL of the blood was collected from the jugular vein or the tail vein of the animals 0.0833, 0.25, 0.5, 1, 2, 4, 6, 8 and 24 hours after administration, and placed in the anticoagulant tube containing EDTA-K2, followed by centrifugation at 4° C. for 15 minutes to collect the plasma. The plasma concentration was determined by LC-MS/MS. The pharmacokinetic parameters were calculated by the non-compartment model linear logarithmic trapezoidal method using WinNonlin™ Version 6.3 (Pharsight, Mountain View, Calif.) pharmacokinetic software.

| Exposure | Structure (SMILES) |
| --- | --- |
| 408.566 µM·h | Cc1cc(F)c(C(=O)Nc2cccc(-c3nnc4n3CCCC4)n2)cc1-n1cnc(C2CC2)c1 [WX002] |

Same assay, conditions: mouse, C57BL/6 male mice, intragastric vs intravenous administration

| bioavailability | Structure (SMILES) |
| --- | --- |
| 156% | Cc1cc(F)c(C(=O)Nc2cccc(-c3nnc4n3CCCC4)n2)cc1-n1cnc(C2CC2)c1 [WX002] |

Target: ASK1/MAP3K5 (Homo sapiens (Human), UniProt Q99683)
Assay: Enzyme activity: ASK1 kinase 33P-ATP filter-binding assay with MBP substrate
Assay type: biochemical
Conditions: ASK1 enzyme activity, class symbols; read-out: IC50 value
Description: Experimental Example 1: Enzyme Activity
Primary reaction buffer solution: 20 mM Hepes (pH 7.5), 10 mM MgCl2, 1 mM EGTA, 0.02% Brij35, 0.02 mg/ml BSA, 0.1 mM Na3VO4, 2 mM DTT, 1% DMSO
Treatment of the Compound:
The tested compounds were formulated into a 10 mM stock solution in DMSO, diluted in 3-fold gradient for a total of 10 concentrations, and placed in a 384-well plate (Cyclic Olefin Copolymer LDV Echo®).
Kinase Name: ASK1/MAP3K5 (Invitrogen, Carlsbad, Calif.)
Type: Recombinant Human Full Length Protein, GST-tagged
Final reaction concentration of the enzyme: 20 nM
Substrate: Myelin basic protein, MBP (Active Motif, Carlsbad, Calif.)
Final reaction concentration of the substrate: 20 μM
1. The substrate was dissolved in a freshly prepared primary reaction buffer solution,
2. The desired coenzyme factor was added to the above substrate solution,
3. The kinase was added to the substrate solution and mix gently,
4. The solution tested compound in DMSO was added to the kinase reaction solution and incubated at room temperature for 20 minutes.
5. The reaction was initiated by adding ^33P-ATP (specific activity 10 μCi/μL) to the reaction solution.
6. Incubated at room temperature for 2 hours.
7. A small portion of the reactants were placed onto the P-81 ion exchange filter paper.
8. The filter paper was washed three times with 0.75% phosphate buffer to wash away unbound phosphate, and then dried.
9. The radioactivity remaining on the filter paper was determined,
10. The data for the kinase activity was expressed as the ratio of the kinase activity remaining in the test sample to the kinase activity in the vehicle (DMSO).
11. IC50 values and curve fitting were collected by Prism (GraphPad software).

Sequence of ASK1/MAP3K5 (Q99683 whole entry): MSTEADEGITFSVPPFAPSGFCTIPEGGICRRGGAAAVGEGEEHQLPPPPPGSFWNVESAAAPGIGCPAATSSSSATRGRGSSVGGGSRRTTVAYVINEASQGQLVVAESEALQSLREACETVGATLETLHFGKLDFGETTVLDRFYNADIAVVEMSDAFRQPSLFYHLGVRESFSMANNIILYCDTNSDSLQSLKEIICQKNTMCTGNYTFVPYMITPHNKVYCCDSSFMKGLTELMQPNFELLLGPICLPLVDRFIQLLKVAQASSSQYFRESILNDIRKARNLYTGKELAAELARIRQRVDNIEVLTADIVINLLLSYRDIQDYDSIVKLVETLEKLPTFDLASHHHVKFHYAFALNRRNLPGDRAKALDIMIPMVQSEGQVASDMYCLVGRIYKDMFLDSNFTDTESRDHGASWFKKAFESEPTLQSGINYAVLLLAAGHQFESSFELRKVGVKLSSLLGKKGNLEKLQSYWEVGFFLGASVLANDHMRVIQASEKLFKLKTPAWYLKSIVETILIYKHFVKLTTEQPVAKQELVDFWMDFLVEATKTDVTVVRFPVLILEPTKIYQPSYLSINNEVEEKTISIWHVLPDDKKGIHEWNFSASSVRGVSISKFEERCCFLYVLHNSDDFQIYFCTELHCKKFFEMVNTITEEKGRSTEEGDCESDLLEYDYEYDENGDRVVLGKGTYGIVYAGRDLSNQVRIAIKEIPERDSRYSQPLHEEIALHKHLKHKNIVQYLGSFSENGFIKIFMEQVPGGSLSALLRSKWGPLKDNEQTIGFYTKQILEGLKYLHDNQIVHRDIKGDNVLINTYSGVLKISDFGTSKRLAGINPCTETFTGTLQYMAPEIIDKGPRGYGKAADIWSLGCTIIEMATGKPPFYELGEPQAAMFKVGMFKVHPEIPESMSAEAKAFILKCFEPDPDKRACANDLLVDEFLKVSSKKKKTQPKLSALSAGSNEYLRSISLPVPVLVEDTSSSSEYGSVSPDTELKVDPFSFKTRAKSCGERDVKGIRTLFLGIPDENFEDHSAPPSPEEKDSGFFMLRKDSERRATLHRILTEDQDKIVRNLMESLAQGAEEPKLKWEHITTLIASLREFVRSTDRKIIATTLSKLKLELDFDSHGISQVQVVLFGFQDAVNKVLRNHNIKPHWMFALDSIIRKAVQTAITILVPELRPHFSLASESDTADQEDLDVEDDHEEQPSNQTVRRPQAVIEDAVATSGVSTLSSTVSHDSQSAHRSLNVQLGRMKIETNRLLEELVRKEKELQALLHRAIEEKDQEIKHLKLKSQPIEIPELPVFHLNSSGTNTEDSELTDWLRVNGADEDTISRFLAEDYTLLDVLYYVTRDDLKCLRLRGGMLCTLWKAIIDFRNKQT

| IC50 | Structure (SMILES) |
| --- | --- |
| > 100 nM | Cc1cc(F)c(C(=O)Nc2cccc(-c3nnc4n3CCCC4)n2)cc1-n1nnc(C2CC2)n1 [WX004] |
| ≤ 100 nM | Cc1cc(F)c(C(=O)Nc2cccc(-c3nnc4n3CCCC4)n2)cc1-n1cnc(C2CC2)n1 [WX005] |
| > 100 nM | Cc1cc(F)c(C(=O)Nc2cccc(-c3nnc4n3CCCC4)n2)cc1-n1cc(C2CC2)nn1 [WX003] |
| ≤ 100 nM | Cc1cc(F)c(C(=O)Nc2cccc(-c3nnc4n3CCCC4)n2)cc1-n1cnc(C2CC2)c1 [WX002] |
| ≤ 100 nM | Cc1cc(F)c(C(=O)Nc2cccc(-c3nnc4n3CCC4)n2)cc1-n1cnc(C2CC2)c1 [WX001] |

Same assay, conditions: recombinant human full length GST-tagged ASK1 20 nM, MBP 20 μM, 33P-ATP, 2 hours room temperature; read-out: IC50

| IC50 | Structure (SMILES) |
| --- | --- |
| > 1000 nM | Cc1cc(F)c(C(=O)Nc2cccc(-c3nnc4n3CCCC4)n2)cc1-n1nnc(C2CC2)n1 [WX004] |
| 35.3 nM | Cc1cc(F)c(C(=O)Nc2cccc(-c3nnc4n3CCCC4)n2)cc1-n1cnc(C2CC2)n1 [WX005] |
| 10.1 nM | O=C(Nc1cccc(-c2nnc3n2CCCC3)n1)c1cc(-n2cnc(C3CC3)c2)c(N2CCOCC2)cc1F [WX015] |
| 943 nM | Cc1cc(F)c(C(=O)Nc2cccc(-c3nnc4n3CCCC4)n2)cc1-n1cc(C2CC2)nn1 [WX003] |
| 19.2 nM | O=C(Nc1cccc(-c2nnc3n2CCCC3)n1)c1cc(-n2cnc(C3CC3)c2)c(-c2cccnc2)cc1F [WX006] |
| 7.61 nM | O=C(Nc1cccc(-c2nnc3n2CCCC3)n1)c1cc(-n2cnc(C3CC3)c2)c(OCC2COC2)cc1F [WX011] |
| 4.12 nM | Cc1cc(F)c(C(=O)Nc2cccc(-c3nnc4n3CCCC4O)n2)cc1-n1cnc(C2CC2)c1 (stereo not shown) [WX016] |
| 5.6 nM | Cc1cc(F)c(C(=O)Nc2cccc(-c3nnc4n3CCCC4)n2)cc1-n1cnc(C2CC2)c1 [WX002] |
| 1.82 nM | Cc1cc(F)c(C(=O)Nc2cccc(-c3nnc4n3CCC4)n2)cc1-n1cnc(C2CC2)c1 [WX001] |
| 10.7 nM | CN(C)c1cc(F)c(C(=O)Nc2cccc(-c3nnc4n3CCCC4)n2)cc1-n1cnc(C2CC2)c1 [WX014] |
| 16.6 nM | COCCOc1cc(F)c(C(=O)Nc2cccc(-c3nnc4n3CCCC4)n2)cc1-n1cnc(C2CC2)c1 [WX007] |
| 7.93 nM | O=C(Nc1cccc(-c2nnc3n2CCCC3)n1)c1cc(-n2cnc(C3CC3)c2)c(OCCCF)cc1F [WX013] |
| 7.2 nM | CC1(COc2cc(F)c(C(=O)Nc3cccc(-c4nnc5n4CCCC5)n3)cc2-n2cnc(C3CC3)c2)COC1 [WX010] |
| 5.44 nM | O=C(Nc1cccc(-c2nnc3n2CCCC3)n1)c1cc(-n2cnc(C3CC3)c2)c(O)cc1F [WX008] |
| 7.04 nM | O=C(Nc1cccc(-c2nnc3n2CCCC3)n1)c1cc(-n2cnc(C3CC3)c2)c(OCCF)cc1F [WX012] |
